Data taken from US20250186404A1, “METHODS OF USING A (THIAZOLYL)BENZENESULFONAMIDE DERIVATIVE” (Cyteir Therapeutics, Inc., priority 2023, published 2025).

Experiments:
Format in all cases: cell-based
human MCT1 [1] = biological target: T1, human MCT1 (Homo sapiens, UniProt P53985); assay: MCT1 Transport Inhibition Assay (TPGA uptake, LC-MS/MS)
T1 construct: host or cells: MDCK-II (canine) cells, transient co-transfection
T1 sequence (P53985 1-500): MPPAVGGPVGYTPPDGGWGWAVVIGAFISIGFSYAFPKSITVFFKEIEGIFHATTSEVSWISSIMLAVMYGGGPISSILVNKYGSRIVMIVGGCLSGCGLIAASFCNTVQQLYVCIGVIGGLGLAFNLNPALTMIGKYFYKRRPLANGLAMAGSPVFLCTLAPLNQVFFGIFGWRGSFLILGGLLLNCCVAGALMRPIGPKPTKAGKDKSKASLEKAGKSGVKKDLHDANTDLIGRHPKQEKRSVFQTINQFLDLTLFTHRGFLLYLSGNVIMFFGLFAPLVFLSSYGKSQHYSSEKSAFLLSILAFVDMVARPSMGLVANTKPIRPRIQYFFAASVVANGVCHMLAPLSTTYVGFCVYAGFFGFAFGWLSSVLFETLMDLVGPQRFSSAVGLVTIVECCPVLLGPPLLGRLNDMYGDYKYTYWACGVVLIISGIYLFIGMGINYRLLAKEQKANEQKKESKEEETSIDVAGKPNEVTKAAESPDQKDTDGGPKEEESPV
T1 sequence (P35613 140-385 partner limits assumed): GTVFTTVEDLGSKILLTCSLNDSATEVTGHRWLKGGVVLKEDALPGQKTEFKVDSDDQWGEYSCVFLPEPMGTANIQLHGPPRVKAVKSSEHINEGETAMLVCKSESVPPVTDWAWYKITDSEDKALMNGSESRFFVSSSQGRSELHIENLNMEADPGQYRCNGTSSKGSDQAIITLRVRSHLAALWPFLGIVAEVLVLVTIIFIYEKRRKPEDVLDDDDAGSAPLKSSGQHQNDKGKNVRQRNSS
Procedure: Inhibition of MCT1 transport after treatment with compounds of the present invention was measured in MDCK-II cells that overexpress human MCT1 by quantifying the transport of 2-Thiophene-glycoxylic acid (TPGA) into cells using LC-MS/MS.
MDCK-II cells are seeded at 60,000 cells per well in growth medium (low-glucose DMEM+10% FBS) in 96-well trans-well membrane plates, and incubated overnight (37° C., 5% CO2). Cells were co-transfected with mammalian expression constructs coding for MCT1 and CD147 at a 2:1 ratio or an empty vector control (GFP) and then incubated for 48 h (37° C., 5% CO2). Cells were washed 3 times with HBSS and cells were preincubated with inhibitors or vehicle control at room temperature in HBSS for 30 min with orbital shaking (60 rpm). HBSS was aspirated from the wells and replaced with HBSS with 25 mM Bis-Tris pH5.5+inhibitor or vehicle control+500 μM TPGA and incubated for 1 min at room temperature with orbital shaking (60 rpm). Both the apical and basolateral side of the trans-well insert were washed 4 times with ice-cold PBS. Cells were lysed with 60 μL of cell extraction solution, and the amount of TPGA in each well was quantified in triplicate by LC-MS/MS. The MCT1-mediated uptake rate was calculated using the following equation: […]
Percent inhibition for each concentration of inhibitor tested was calculated using the following equation: […]
Curves were fit to the calculated percent inhibition for each inhibitor, and the IC50 representing the concentration of inhibitor at which MCT1 is inhibited by 50% was calculated from this curve.
Canine MDCKII cells expressing human MCT1 were treated with a titration of Compound 67A, and import of the MCT1 substrate, 2-TPGA was measured by LC-MS (FIG. 1).

Human MCT3 = biological target: T2, Human MCT3 (Homo sapiens, UniProt O95907); assay: Inhibition of 3BP import (rescue of viability) in MCT3-overexpressing INS-1 cells; conditions: INS-1 cells over-expressing human MCT3, rescue from LC100 3BP
T2 construct: expressed in transfected cells
T2 sequence (O95907 1-504): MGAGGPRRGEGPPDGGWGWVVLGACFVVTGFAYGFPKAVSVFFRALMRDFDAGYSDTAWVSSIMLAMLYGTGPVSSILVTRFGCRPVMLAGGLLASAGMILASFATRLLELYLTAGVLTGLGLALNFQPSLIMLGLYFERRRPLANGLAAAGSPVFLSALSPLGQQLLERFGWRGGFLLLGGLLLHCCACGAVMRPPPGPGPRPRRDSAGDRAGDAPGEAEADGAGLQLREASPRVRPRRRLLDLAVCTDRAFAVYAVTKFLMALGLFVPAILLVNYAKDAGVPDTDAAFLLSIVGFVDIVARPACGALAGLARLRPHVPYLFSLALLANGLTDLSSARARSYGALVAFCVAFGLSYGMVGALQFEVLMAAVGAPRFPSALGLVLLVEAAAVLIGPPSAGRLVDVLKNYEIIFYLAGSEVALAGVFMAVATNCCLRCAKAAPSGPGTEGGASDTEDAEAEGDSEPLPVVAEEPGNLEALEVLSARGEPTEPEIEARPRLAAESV
T2 sequence (P26453 23-388 partner): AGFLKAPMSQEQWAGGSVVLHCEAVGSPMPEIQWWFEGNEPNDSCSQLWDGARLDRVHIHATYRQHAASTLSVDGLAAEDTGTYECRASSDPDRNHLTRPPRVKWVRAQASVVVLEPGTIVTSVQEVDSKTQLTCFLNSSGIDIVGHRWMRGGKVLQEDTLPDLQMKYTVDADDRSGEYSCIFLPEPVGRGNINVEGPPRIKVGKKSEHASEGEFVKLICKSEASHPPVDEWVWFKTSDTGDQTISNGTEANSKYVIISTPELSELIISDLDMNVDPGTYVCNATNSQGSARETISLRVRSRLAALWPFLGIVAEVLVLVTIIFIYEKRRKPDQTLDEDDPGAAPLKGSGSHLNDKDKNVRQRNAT
Procedure: (§1) Human MCT1-4 were stably expressed in INS-1 rat pancreatic islet B-cells, which are deficient in endogenous MCT expression. 3-Bromopyruvate (3BP), a highly reactive and cytotoxic monocarboxylate, can enter the INS-1 cells via the overexpressed MCT isoform, resulting in rapid cell death. However, prevention of 3BP transport into the cell by an MCT inhibitor can prevent 3BP-mediated cell death (FIG. 16).
(§2) INS-1 cells over-expressing an MCT paralog were treated with a titration of 3BP to determine the lowest concentration that results in 100% cell killing (LC100). The INS-1 cells were then pre-treated with a titration of Compound 67A before exposure to the LC100 concentration of 3BP specific for that MCT-over-expressing cell line, and rescue of cell viability was measured (FIG. 17).

human MCT1 [2] = biological target: T3, human MCT1 (Homo sapiens, UniProt P53985); assay: Inhibition of 3BP import (rescue of viability) in MCT1-overexpressing INS-1 cells; conditions: INS-1 cells over-expressing human MCT1, rescue from LC100 3BP
T3 construct: expressed in transfected cells
T3 sequence (P53985 1-500): T1 sequence (P53985 1-500)
T3 sequence (P26453 23-388 partner): T2 sequence (P26453 23-388 partner)
Procedure: as §1, §2

[3] = MDCK-II cells overexpressing human MCT1, TPGA transport, read-out: BioIVT MCT1 Transporter IC50

Row | Compound | IC50 (human MCT1 [1]; [3]) [nM] | IC50 (Human MCT3) [nM] | IC50 (human MCT1 [2]) [nM] | IC50 (human MCT1 [1]; Canine MDCKII cells expressing human MCT1, LC-MS, read-out: inhibits 2-TPGA import, IC50) [nM]
1 | AZD3965 | 150 to 1000 | > 33000 | < 100 | –
2 | O=C(Nc1ccccc1C(=O)O)c1cc(S(=O)(=O)c2ccccc2)ccc1Cl [BAY8002] | 50 to 150 | > 33000 | 1000 to 10000 | –
3 | CC(C)OC(=O)Nc1ccc(-c2cnc([C@H]3CC[C@H](NC(=O)OC(C)C)CC3)s2)c(S(=O)(=O)NC(C)(C)C)c1 [Compound 67A] | 50 to 150 | 10000 to 33000 | 100 to 1000 | 134
